Experimental data from paper PMC11519904, “Comprehensive Cell Biological Investigation of Cytochalasin B Derivatives with Distinct Activities on the Actin Network” (Journal of Natural Products, 2024).
Entries after “also recorded” stand apart in the source; their conditions may differ. Like-named read-outs stand apart in the source and are kept apart here.

Key:
[1] = test system: L929 (mouse fibroblast); assay: Cytotoxicity assay (MTT), L929; type: cell-based; conditions: 5 days of incubation, MTT, NC: no cytotoxic effect, or only weak inhibition of proliferation, read-out: IC50 L929
Experimental: The cytotoxicity assay was implemented in 96-well flat-bottom microtiter plates following a reported procedure.[21],[22],[33] The mammalian cell lines L929 (mouse fibroblast) and KB3.1 (human cervix carcinoma) were cultivated at 37 °C and 10% CO2 in Dulbecco’s modified minimum essential medium (DMEM, Life Technologies, Carlsbad, CA, USA) supplemented with 10% fetal bovine serum (FBS, Life Technologies). The microtiter plate was filled with 120 μL of suspended cells (50,000/mL), and 60 μL of a serial dilution of the test compound was added. After 5 days of incubation, growth inhibition (IC50) was determined by a colorimetric tetrazolium dye MTT assay.[34] The compounds were dissolved in MeOH (1 mg/mL), MeOH was used as negative control, and epothilone[35] (1 mg/mL) was used as positive control.

[2] = Microextraction of compounds from medium after cell exposure (conversion to 2); type: in vitro ADME, human; conditions: for conversion to 2 after 1 h: 1 h cell exposure (data not shown)
Experimental: […] Therefore, cells were seeded and treated with 5 × IC50 concentrations, as already described. […] After evaporation of EtOAc, the dried extracts were diluted in methanol (50 μL) and measured with a high-pressure liquid chromatography system coupled to a diode-array UV/vis detector conjugated with an electrospray ionization mass spectrometer, using an UltiMate 3000 Series uHPLC (Thermo Fisher Scientific) utilizing a C18 Acquity UPLC BEH column (2.1 × 50 mm, 1.7 μm; Waters, Milford, USA) connected to an amaZon speed ESI-Iontrap-MS (Bruker, Billerica, MA, USA). Spectra were analyzed using Bruker Compass DataAnalysis 4.4 SR1.

[3] = test system: filamentous actin (F-actin) in U-2OS wild type (wt) cells; assay: Actin disruption assay in U-2OS cells (phalloidin staining); type: cell-based, human; conditions: for effect on F-actin network, high dose 1 h: 5 x IC50 (L929), compared to control; for effect on actin and nuclei number, high dose 24 h: 5 x IC50, 24 h, differences between 1 and 24 h treatment
Experimental: For this, the human osteosarcoma cell line U-2OS was treated using concentrations estimated based on previously determined IC50 values in murine L929 fibroblasts (Table 1), referred to as low dose (1 × IC50), and a 5-fold concentration, referred to as high dose (5 × IC50). Reorganization of the F-actin network was also investigated upon high dose treatment, followed by washout and a 1 h recovery phase in fresh medium. The impact on F-actin network organization was visualized using fluorescently labeled phalloidin (Figure 2). […] In addition, the effects on F-actin structures observed upon high dose treatment of all compounds were fully reversible after a 1 h recovery time (Figure 2m–q).
The respective previously determined IC50 values in L929 were used to calculate the treatment concentration (1 × IC50: low dose; 5 × IC50: high dose).[37] DMSO was used as the vehicle control, corresponding to the highest compound volume used in the assay. Coverslips were coated with 25 μg/mL fibronectin (Roche, Mannheim, Germany) diluted 1:40 in phosphate buffered saline (PBS, pH 7.4, Life Technologies), and cells were seeded at a density of 20,000 cells and allowed to spread overnight. CO2-equilibrated culture medium was spiked with the desired compound and DMSO, respectively, in the above-mentioned concentration, and cells were treated with prepared medium for 1 h under cell culture conditions. For long-term experiments, the treatment phase was extended to 24 h. Cells were washed once and fixed afterward using 4% prewarmed paraformaldehyde (PFA) supplied in PBS for 20 min at 37 °C, followed by three additional washing steps with prewarmed PBS buffer. In addition, the reversibility of high dose effects on F-actin network organization was investigated by a washout procedure including three times prewarmed PBS wash steps prior to the addition of fresh medium and a recovery time of 1 h before fixation. In the case of 24 h treatments, the recovery phase was extended to 47 h. Cells were permeabilized with 0.1% Triton X-100 (Bio-Rad Laboratories, Hercules, CA, USA) in PBS buffer for 1 min at room temperature, washed three times with PBS, and stained for F-actin using ATTO-594-coupled phalloidin (ATTO-Tec, Siegen, Germany) diluted in PBS buffer (1:100) for 1 h at room temperature. Coverslips were washed thrice in PBS and mounted in ProLong Diamond antifade mountant (Invitrogen) containing DAPI to probe for nuclear DNA. Cells were recorded using an inverted microscope (Nikon Eclipse Ti2, Tokyo, Japan) equipped with a 60 times Nikon oil immersion objective (Plan Apofluar, 1.4 NA), a pE-4000 (CoolLED, Andover, UK) as light source, and a pco.edge back-illuminated sCMOS camera (Excelitas Technologies, Mississauga, ON, Canada). The microscopy system was operated by and images were recorded with NIS (Nikon) and processed with ImageJ (NIH, Bethesda, MD, USA).

| Compound | IC50 [1] [µM] | IC50 ([1]; Mus musculus, L929, 120 h) [µM] | conversion to 2 / decomposition after 24 h cell exposure ([2]; medium re-extracted after 24 h, 5 x IC50, HPLC-UV-MS) | effect on F-actin network, high dose 1 h ([3]; 1 h) | effect on actin and nuclei number, high dose 24 h [3] | conversion to 2 after 1 h [2] | effect on F-actin network, low dose ([3]; 1 x IC50 (L929), 1 h) |
| --- | --- | --- | --- | --- | --- | --- | --- |
| C=C1[C@@H](C)[C@H]2[C@H](Cc3ccccc3)NC(=O)[C@]23OC(=O)/C=C/[C@H](O)CCC[C@@H](C)C/C=C/[C@H]3[C@@H]1OC(C)=O [Compound 3, 7-O-acetyl cytochalasin B] | 16 | > 10 | no decomposition | no such structures; also recorded: no effect | + actin disruption; also recorded: altered actin structures, however without inducing multinucleation | – | – |
| C=C1[C@@H](C)[C@H]2[C@H](Cc3ccccc3)NC(=O)[C@]23OC(=O)/C=C/[C@H](OC(C)=O)CCC[C@@H](C)C/C=C/[C@H]3[C@@H]1O [Compound 6, 20-O-acetyl cytochalasin B] | 4.8 | 4.8 to 9.4 | – | complete collapse of the F-actin network; also recorded: actin disruption | + multinucleation | not detected | partially led to compromised lamellipodia and a reduction of intermittent, cytoplasmic F-actin |
| C=C1[C@@H](C)[C@H]2[C@H](Cc3ccccc3)N(C(C)=O)C(=O)[C@]23OC(=O)/C=C/[C@H](O)CCC[C@@H](C)C/C=C/[C@H]3[C@@H]1O [Compound 5, N-acetyl cytochalasin B] | 9.4 | 4.8 to 9.4 | – | only slight; also recorded: moderate effects | + multinucleation actin disruption | little conversion | – |
